Laboratory results: patent US20250134870A1, “PATHWAY MODULATOR, PHARMACEUTICAL COMPOSITION HAVING SAME, USE THEREOF, AND THERAPEUTIC METHOD USING SAME” (Jiangsu Yahong Meditech Co., Ltd., priority 2021, published 2025)

Columns and labels:
[1] = test system: imiquimod (IMQ)-induced psoriasis; assay: Imiquimod (IMQ)-induced psoriasis in mice: erythema, scales, thickness, total score, AUC (Example 8); format: in vivo, Balb/c mice; set-up: key to erythema score / scales score / thickness score: 0 = none, 1 = mild, 2 = moderate, 3 = obvious/severe; key to total score of erythema + scales + thickness: sum of three 0-3 scores (erythema + scales + thickening), 0-9; conditions: for erythema score / scales score: BID × 2 days; for thickness score / total score of erythema + scales + thickness: positive control group
Method: All mice were shaved with a pet shaver to get an area of 2×3 cm on the back one day before the start of the experiment.
65 animals were randomly divided into groups according to body weight, and the dosing regimen was as follows.
Imiquimod (IMQ) cream: 62.5 mg of IMQ cream for each mouse in G2 to G7; Dexamethasone (DEX) ointment: 70 mg of ointment for each mouse in G4;
Tofacitinib: Tofacitinib was dissolved in dimethyl sulfoxide to 5 mg/mL, and 50 μL was added to IMQ cream for daily treatment.
Mice in Groups 2 to 7 received daily topical doses of 62.5 mg of IMQ cream on their shaved back from Day 0 to Day 7.
Dosing of the test compounds and reference substance was carried out according to Table 29 for 7 consecutive days.
To assess the severity of inflammation of skin on the back, the skin on the back was scored according to Table 30. Erythema, scales and thickening were scored independently on a scale of 0 to 3, 0, none; 1. mild; 2. moderate; 3. obvious/severe.
The inhibition rate was calculated according to the following formula: Inhibition rate=[AUC (solvent)−AUC (treatment)]/AUC (solvent)×100%. Wherein, solvent referred to the solvent group corresponding to the route of administration.

[2] = test system: bleomycin-induced skin fibrosis; assay: Bleomycin-induced skin fibrosis in mice: skin histopathology (dermal thickness, capillary density score, inflammatory cell infiltration score); format: in vivo, male C57BL/6 mice; conditions: 50 mg/kg PO BID, 28 days
Method: The skin tissue of the lesioned skin was subjected to dehydration, embedding and sectioning according to the pathology SOP, and the tissue was stained by HE and Masson staining. Histopathological analysis was performed according to the following methods:
Masson-stained sections were panoramically scanned by using Nanozomer S210 and the scanned images were subjected to quantitative analysis using Visiopharm VIS6.0 software. The degree of fibrosis was currently represented by the dermal thickness after Masson staining.
The fields of observation was selected in the dermis layer of the lesioned area (the number of fields selected was determined according to the size of the lesioned area) and scored according to the area occupied by capillaries in the area: • 0: No capillary formed • 1: The proportion of capillaries formed was less than 25%; • 2: The proportion of capillaries formed was 25-50%; • 3: The proportion of capillaries formed was 50-75%; • 4: The proportion of capillaries formed was greater than 75%. 3.8.3 Inflammatory cell infiltration score of dermis layer
The fields of observation was selected in the dermis layer of the lesioned area (the number of fields selected was determined according to the size of the lesioned area) and scored according to the degree of inflammatory cell infiltration: • 0: No inflammatory cell infiltration: • 1: A small amount of focal inflammatory cell infiltration; • 2: Scattered diffuse inflammatory cell infiltration: • 3: A large amount of diffuse inflammatory cell infiltration; • 4: A large amount of agglomerated inflammatory cell infiltration.

[3] = test system: systolic and diastolic blood pressure; conditions: 200 mg, phase II clinical study, cited from earlier work
norepinephrine level = conditions: cited from earlier work
[4] = test system: dextran sulfate sodium (DSS)-induced colitis; assay: DSS-induced colitis in mice: body weight, DAI score, colon density (Examples 1, 3); format: in vivo, C57BL/6J mice; conditions: for Colon density: experimental endpoint
Method: 8-10 week old female C57BL/6J mice purchased from Charles River Laboratories were used. The mice were housed in a room at constant temperature (20+2° C.) (5 mice per cage) with a 12-hour light-dark cycle. All protocols were approved by the Institutional Animal Care and Use Committee of WuXi AppTec. These mice were adapted to the housing conditions at the animal experiment center of WuXi AppTec for at least three days prior to the experiment. […] At the experimental endpoint (see hereinafter), mice were euthanized and endpoint samples were obtained. Mice in the normal group were not given 3% DSS aqueous solution to induce colitis and were free to drink blank water. […] The animal body weight and DAI score were assessed under double-blind conditions, that is, the researchers collected the body weight data of mice and observed and scored the stool characteristics and blood stools every day, without knowing the group and dosing regimen. The DAI score was the sum of the weight loss score, stool score and bleeding score. […] The data were analyzed by analysis of variance, specifically by using the following process: using Graph Pad Prism 6.0 software to carry out post-hoc Dunnett's multiple comparison test. […] Data were expressed as mean±S.E.M. The experimental endpoint was 24 hours after administration on Day 8 for the positive drug control group and the Test group 1 #to Test group 7 #of Example 1; the experimental endpoint of the normal group and the solvent group was the same as that of the positive drug control group and Test group 1 #to Test group 7 #.

[5] = test system: dextran sulfate sodium (DSS)-induced colitis; assay: DSS-induced colitis in mice, 3.1% DSS: body weight change and DAI (Example 11); format: in vivo, C57BL/6 mice; conditions: 100 mg/kg, qd
From the text: The experimental mice were housed in an SPF grade animal room for three days for adaptation, and randomly divided into 7 groups (6 model groups and 1 control group) of 10 mice in each group. Dosing of mice started on Day 0 and ended on Day 7.
The mouse enteritis model of this Example was established by DSS induction: mice in the model group were provided with a 3.1% DSS (dextran sulfate sodium, molecular weight 36,000-50,000) aqueous solution from Day 0 to Day 7, and the DSS aqueous solution was replaced with freshly prepared solution every day to prevent degradation. Mice in the normal control group were provided with normal water. The experimental period was 9 days, and the mice were euthanized and samples were collected at the experimental endpoint.
The DAI score was assessed daily. The DAI score consisted of 3 parts: body weight change, stool characteristics, and hematochezia (or occult blood) score, and the specific scoring criteria were as shown in Table 49. The DAI scoring of all mice was done by the same staff throughout the experiment.
Mice were euthanized at the experimental endpoint. The colon of mice was dissected, and photograph was taken, the length was measured, and the contents were removed before weighing.
The data were expressed as mean±standard error (X±s). Body weight change and disease activity score were statistically analyzed by two-way ANOVA and comparison between groups were performed by Dunnett's test. Other data were statistically analyzed by one-way ANOVA and comparison between groups were performed by Dunnett's test. All analyses were performed using GraphPad Prism software. * P<0.05, ** P<0.01, *** P<0.005, **** P<0.0001 vs. solvent group.

[6] = Day 0, 12.5 mg/kg topical QD × 5 days
[7] = Day 1, 12.5 mg/kg topical QD × 5 days
[8] = Day 2, 12.5 mg/kg topical QD × 5 days
[9] = Day 3, 12.5 mg/kg topical QD × 5 days
[10] = Day 4, 12.5 mg/kg topical QD × 5 days
[11] = Day 5, 12.5 mg/kg topical QD × 5 days
[12] = Day 6, 12.5 mg/kg topical QD × 5 days
[13] = Day 7, 12.5 mg/kg topical QD × 5 days
[14] = rats with spontaneous hypertension

For `C[C@@H]1CCN(C(=O)CC#N)C[C@@H]1N(C)c1ncnc2[nH]ccc12` [Tofacitinib], the “efficacy on clinical score” value ([1]; 12.5 mg/kg topical QD × 5 days, then BID × 2 days) was “showed efficacy after doubling the dose”, the erythema score [1, 6] was 0 and the scales score [1, 6] was 0. For the same compound, the thickness score ([1]; Day 0) was 0, the “total score of erythema + scales + thickness” value (shortened to “total score”) ([1]; Day 0) was 0 and the erythema score [1, 7] was 0. The scales score [1, 7] was 0, the thickness score ([1]; Day 1) was 0.8 and the “total score” value ([1]; Day 1) was 0.8. The erythema score [1, 8] was 1.4, the scales score [1, 8] was 0 and the thickness score ([1]; Day 2) was 1.4. For the same compound, the “total score” value ([1]; Day 2) was 2.8, the erythema score [1, 9] was 1.9 and the scales score [1, 9] was 0.4. The thickness score ([1]; Day 3) was 2.2, the “total score” value ([1]; Day 3) was 4.5 and the erythema score [1, 10] was 2.2. The scales score [1, 10] was 0.7, the thickness score ([1]; Day 4) was 2 and the “total score” value ([1]; Day 4) was 4.9. For the same compound, the erythema score [1, 11] was 2, the scales score [1, 11] was 1.4 and the thickness score ([1]; Day 5) was 2.2. The “total score” value ([1]; Day 5) was 5.6, the erythema score [1, 12] was 1.8 and the scales score [1, 12] was 1.3. The thickness score ([1]; Day 6) was 2, the “total score” value ([1]; Day 6) was 5.1 and the erythema score [1, 13] was 1.7. The scales score [1, 13] was 1.6, the thickness score ([1]; Day 7) was 1.9 and the “total score” value ([1]; Day 7) was 5.2.
In the case of `COC(=O)c1ccc2c(c1)NC(=O)/C2=C(\Nc1ccc(N(C)C(=O)CN2CCN(C)CC2)cc1)c1ccccc1` [Nintedanib], the “inflammatory cell infiltration of the lesioned skin” value [2] is reported as “visibly reduce” and the subdermal capillary hyperplasia [2] is reported as “visibly reduce”.
For `NCCc1c[nH]c(=S)n1[C@H]1COc2c(F)cc(F)cc2C1` [Etamicastat], the tolerance and safety ([3]; 10 days of treatment) is listed as “good tolerance and safety”, the “systolic and diastolic blood pressure” value ([3]; after 10 days of treatment) is listed as “reduced systolic and diastolic blood pressure in a dose-dependent manner” and the brain-blood-barrier penetration (norepinephrine level; compared with Nepicastat) is listed as “lower levels of brain-blood-barrier penetration”. For the same compound, the “effect on brain tissue (norepinephrine level)” value (norepinephrine level; [14]) was “no effect on brain tissue”, the “norepinephrine level in peripheral sympathetic innervation tissues” value (norepinephrine level; [14]) was “reduce the norepinephrine level in peripheral sympathetic innervation tissues” and the “Body weight on Day 7, g” value ([4]; 10 mg/kg PO QD × 8 days) was 19.18 g. For the same compound, the “Body weight on Day 7/initial body weight, %” value ([4]; 10 mg/kg PO QD × 8 days) was 91.92%, the “Body weight on Day 8, g” value ([4]; 10 mg/kg PO QD × 8 days) was 18.20 g and the “Body weight on Day 8/initial body weight, %” value ([4]; 10 mg/kg PO QD × 8 days) was 87.27%. The “DAI score on Day 8” value ([4]; 10 mg/kg PO QD × 8 days) was 6.20, the “Body weight on Day 7, g” value ([4]; 30 mg/kg PO QD × 8 days) was 19.48 g and the “Body weight on Day 7/initial body weight, %” value ([4]; 30 mg/kg PO QD × 8 days) was 92.19%. For the same compound, the “Body weight on Day 8, g” value ([4]; 30 mg/kg PO QD × 8 days) was 18.89 g, the “Body weight on Day 8/initial body weight, %” value ([4]; 30 mg/kg PO QD × 8 days) was 89.13% and the “DAI score on Day 8” value ([4]; 30 mg/kg PO QD × 8 days) was 6.56. The “Body weight on Day 7, g” value ([4]; 100 mg/kg PO QD × 8 days) was 20.08 g, the “Body weight on Day 8, g” value ([4]; 100 mg/kg PO QD × 8 days) was 19.19 g and the “Body weight on Day 8/initial body weight, %” value ([4]; 100 mg/kg PO QD × 8 days) was 91.63%. For the same compound, the “DAI score on Day 8” value ([4]; 100 mg/kg PO QD × 8 days) was 5.00, the “severity of DSS-induced colitis and disease activity” value ([4]; Nepicastat 30, Etamicastat 100, Zamicastat 100 mg/kg PO QD × 8 days (Test groups 1#, 4#, 7#) vs solvent group) was “ameliorated the severity of DSS-induced colitis and reduced disease activity” and the “Colon density” value ([4]; 10 mg/kg PO QD × 8 days) was 32.24 mg/cm. The “Colon density” value ([4]; 30 mg/kg PO QD × 8 days) was 34.23 mg/cm.
For `O=C(O)/C=C/C(=O)O` [Fumaric acid], the “symptoms caused by DSS-induced colitis (diarrhea, hematochezia)” value [5] was “slightly ameliorate the symptoms of diarrhea and hematochezia”, the “DSS-induced body weight loss” value ([5]; vs solvent group) was “showed a trend of alleviating DSS-induced body weight loss” and the “disease activity score (DAI)” value ([5]; vs solvent group, relatively obvious on Day 4 and Day 5) was “slightly improved”.
